For nine compounds, MIC results are on record in DBAASP.

Values after ≈ are worked out from the molar mass of the structure shown.

Some test systems named below: Enterococcus faecalis; Escherichia coli W3110; Staphylococcus aureus; Aureobasidium pullulans; Bacillus megaterium; Micrococcus luteus; Escherichia coli MG1655; Vibrio cholerae.
Holding throughout (assay): ≥ marks a high value that may be exact or a test limit, other limits are often not marked, values filed in µg/mL are converted to µM
The subject of test [1] is Pseudomonas aeruginosa PAK.
Test [2] relates to Streptococcus mutans UA159.
For test [3], the system named is Streptococcus sanguinis NY101.
Test [4] relates to Streptococcus sobrinus ATCC 33478.
Test [5] relates to Bacillus subtilis ATCC 23857.
Test [6] has as its system Candida albicans ATCC 10231.
In test [7] the test system is Corynebacterium glutamicum ATCC 13032.
Test [8] concerns Escherichia coli ATCC 25922.
Test [9] deals with Pseudomonas aeruginosa ATCC 27853.
The test system of test [10] is Staphylococcus aureus ATCC 9144.
The subject of test [11] is Bacillus subtilis MTCC 14416.
Test [12] has as its system Staphylococcus aureus ATCC 43300.
The subject of test [13] is Staphylococcus aureus MTCC 9542.
Test [14] has as its system Enterococcus faecalis ATCC 29212.
For test [15], the system named is Streptococcus gordonii Challis DL1.
In test [16] the test system is Streptococcus mitis ATCC 903.

Turning to `CC[C@H](C)[C@H](NC(=O)[C@H](Cc1ccccc1)NC(=O)[C@H](Cc1cnc[nH]1)NC(=O)[C@H](CCCCN)NC(=O)[C@@H](NC(=O)[C@H](Cc1ccccc1)NC(=O)[C@@H]1CCCN1C(=O)[C@H](CO)NC(=O)CNC(=O)[C@H](CO)NC(=O)[C@@H]1CCCN1C(=O)[C@H](Cc1ccccc1)NC(=O)[C@H](Cc1cnc[nH]1)NC(=O)[C@H](CC(C)C)NC(=O)[C@H](Cc1cnc[nH]1)NC(=O)[C@H](Cc1ccccc1)NC(=O)[C@H](Cc1cnc[nH]1)NC(=O)[C@@H](N)Cc1ccccc1)[C@@H](C)CC)C(=O)N[C@@H](Cc1cnc[nH]1)C(=O)N[C@@H](CCCN=C(N)N)C(=O)N[C@@H](Cc1ccccc1)C(N)=O` [FHFHLHFPSGSPFIKHFIHRF], the MIC is at least 94.8 µM against Enterococcus faecalis; at least 47.4 µM in the test on Escherichia coli W3110; at least 190 µM in test [1]; over 190 µM with Staphylococcus aureus; 23.7 µM (≈ 62.5 µg/mL) in test [2]; 23.7 µM (≈ 62.5 µg/mL) in test [3]. The compound further registered an MIC in test [4] of 23.7 µM (≈ 62.5 µg/mL).

As for `CC(C)C[C@H](NC(=O)[C@H](CC(C)C)NC(=O)[C@H](CC(C)C)NC(=O)[C@@H]1CCCN1C(=O)[C@H](CCCN=C(N)N)NC(=O)[C@H](CCCN=C(N)N)NC(=O)CN)C(=O)N[C@@H](CCCN=C(N)N)C(=O)N[C@@H](C)C(=O)N[C@@H](CCCN=C(N)N)C(N)=O` [GRRPLLLRAR], the MIC with Aureobasidium pullulans was at least 207 µM; in the test with Bacillus megaterium it was 6.46 µM (≈ 7.79 µg/mL); in test [5], at least 207 µM; in test [6], 104 µM (≈ 125 µg/mL); in test [7] it was 25.9 µM (≈ 31.3 µg/mL); in test [8], over 207 µM. Also, the results for the MIC (against Micrococcus luteus; in [9]; in test [10]) were at least 51.8 µM, over 207 µM and at least 207 µM, respectively.

Consider `C[C@H](NC(=O)[C@H](CCCN=C(N)N)NC(=O)[C@H](Cc1c[nH]c2ccccc12)NC(=O)[C@H](Cc1c[nH]c2ccccc12)NC(=O)[C@H](Cc1c[nH]c2ccccc12)NC(=O)[C@H](Cc1c[nH]c2ccccc12)NC(=O)[C@H](CCCN=C(N)N)NC(=O)[C@H](CCCN=C(N)N)NC(=O)CN)C(=O)N[C@@H](CCCN=C(N)N)C(N)=O` [GRRWWWWRAR], for which the MIC was at least 41.2 µM against Aureobasidium pullulans; 2.57 µM (≈ 3.9 µg/mL) against Bacillus megaterium; 5.15 µM (≈ 7.8 µg/mL) in test [5]; 41.2 µM (≈ 62.5 µg/mL) in test [6]; 5.15 µM (≈ 7.8 µg/mL) in test [7]; 10.3 µM (≈ 15.6 µg/mL) in [8]. In addition, the figures for the MIC (against Micrococcus luteus; in [9]; in test [10]) were 10.3 µM (≈ 15.6 µg/mL), 20.7 µM (≈ 31.3 µg/mL) and at least 41.2 µM, respectively.

As to `CC(C)[C@H](NC(=O)[C@H](CCCCN)NC(=O)[C@H](C)NC(=O)[C@@H](NC(=O)[C@@H](NC(=O)[C@H](C)NC(=O)[C@H](CCCN=C(N)N)NC(=O)[C@H](Cc1c[nH]c2ccccc12)NC(=O)[C@H](Cc1c[nH]c2ccccc12)NC(=O)CN)[C@@H](C)O)C(C)C)C(=O)N[C@@H](CCCN=C(N)N)C(=O)N[C@@H](CCCCN)C(N)=O` [GWWRATVAKVRK], the MIC with Aureobasidium pullulans was 25 µM (≈ 36.4 µg/mL); in test [6] it was 25 µM (≈ 36.4 µg/mL); in test [7], 0.8 µM (≈ 1.17 µg/mL); in [8] it was 6.3 µM (≈ 9.18 µg/mL); in [9] it was 25 µM (≈ 36.4 µg/mL); in test [10] it was at least 100 µM.

In the case of `CC[C@H](C)[C@@H]1NC(=O)[C@H](CCCCN)NC(=O)[C@@H](NC(=O)[C@H](CC(C)C)NC(=O)[C@@H](NC(=O)[C@H](CCC(N)=O)NC(=O)[C@@H]2CCCN2C(=O)[C@H](CC(C)C)NC(=O)[C@H](Cc2ccccc2)NC(=O)[C@H](CC(N)=O)NC(=O)[C@H](C)NC(=O)[C@H](C)NC(=O)[C@H](CC(C)C)NC(=O)CNC(=O)[C@H](C)NC(=O)[C@@H](NC(=O)[C@@H](N)Cc2cnc[nH]2)[C@@H](C)CC)[C@@H](C)CC)CSSC[C@@H](C(N)=O)NC(=O)[C@H](CCCCN)NC(=O)[C@H](CCCN=C(N)N)NC(=O)[C@H](C)NC1=O` [HIAGLAANFLPQILCKIARKC], the MIC in [11] is 21.9 µM (≈ 49.9 µg/mL); in the test with Escherichia coli MG1655, 21.9 µM (≈ 49.9 µg/mL); in test [9] it was over 43.8 µM; in test [12], 43.8 µM (≈ 99.9 µg/mL); in test [13] it was at least 43.8 µM; against Vibrio cholerae, 11 µM (≈ 25 µg/mL).

Take `CC[C@H](C)[C@H](N)C(=O)N[C@@H](C)C(=O)NCC(=O)N[C@@H](CC(C)C)C(=O)N[C@@H](C)C(=O)N[C@@H](C)C(=O)N[C@@H](CC(N)=O)C(=O)N[C@@H](Cc1ccccc1)C(=O)N[C@@H](CC(C)C)C(=O)N1CCC[C@H]1C(=O)N[C@@H](CCC(N)=O)C(=O)N[C@H](C(=O)N[C@@H](CC(C)C)C(=O)N[C@H]1CSSC[C@@H](C(N)=O)NC(=O)[C@H](CCCCN)NC(=O)[C@H](CCCN=C(N)N)NC(=O)[C@H](C)NC(=O)[C@H]([C@@H](C)CC)NC(=O)[C@H](CCCCN)NC1=O)[C@@H](C)CC` [IAGLAANFLPQILCKIARKC]: the MIC was at least 46.6 µM in test [11]; 23.3 µM (≈ 49.9 µg/mL) against Escherichia coli MG1655; over 46.6 µM in [9]; over 46.6 µM in test [12]; 11.7 µM (≈ 25 µg/mL) in test [13]; 11.7 µM (≈ 25 µg/mL) against Vibrio cholerae.

As for `CC[C@H](C)[C@@H]1NC(=O)[C@H](CCCCN)NC(=O)[C@@H](NC(=O)[C@H](CC(C)C)NC(=O)[C@@H](NC(=O)[C@H](CCC(N)=O)NC(=O)[C@@H]2CCCN2C(=O)[C@H](CC(C)C)NC(=O)[C@H](Cc2ccccc2)NC(=O)[C@H](CC(N)=O)NC(=O)[C@H](C)NC(=O)[C@H](C)NC(=O)[C@H](CC(C)C)NC(=O)CNC(=O)[C@H](C)NC(=O)[C@@H](NC(=O)[C@@H](N)CCCCN)[C@@H](C)CC)[C@@H](C)CC)CSSC[C@@H](C(N)=O)NC(=O)[C@H](CCCCN)NC(=O)[C@H](CCCN=C(N)N)NC(=O)[C@H](C)NC1=O` [KIAGLAANFLPQILCKIARKC], the MIC is at least 44 µM in test [11]; 22 µM (≈ 49.9 µg/mL) in [14]; 11 µM (≈ 25 µg/mL) against Escherichia coli MG1655; over 44 µM in test [9]; over 44 µM in test [12]; 5.5 µM (≈ 12.5 µg/mL) in test [13]. This compound also registered an MIC in the test with Vibrio cholerae of 11 µM (≈ 25 µg/mL).

As to `CC[C@H](C)[C@H](NC(=O)[C@H](Cc1cnc[nH]1)NC(=O)[C@H](CCCCN)NC(=O)[C@@H](NC(=O)[C@@H](N)CC(C)C)[C@@H](C)CC)C(=O)N[C@@H](CC(C)C)C(=O)N[C@@H](Cc1cnc[nH]1)C(=O)N[C@@H](CCCN=C(N)N)C(=O)N[C@@H](CC(C)C)C(=O)NCC(=O)NCC(=O)NCC(=O)N[C@@H](Cc1ccccc1)C(=O)N[C@@H](Cc1cnc[nH]1)C(=O)N[C@@H](Cc1ccccc1)C(=O)N[C@@H](Cc1cnc[nH]1)C(=O)N[C@@H](CC(C)C)C(=O)N[C@@H](Cc1cnc[nH]1)C(=O)N[C@@H](Cc1ccccc1)C(N)=O` [LIKHILHRLGGGFHFHLHF], the MIC against Enterococcus faecalis was 14 µM (≈ 32 µg/mL); in the test with Escherichia coli W3110 it was at least 110 µM; in test [1], at least 110 µM; in the test on Staphylococcus aureus it was 27.4 µM (≈ 62.5 µg/mL); in test [2] it was 7.02 µM (≈ 16 µg/mL); in test [3], 27.4 µM (≈ 62.5 µg/mL). Also, in test [4], the MIC was 14 µM (≈ 32 µg/mL).

As to `NC(=O)CC[C@H](NC(=O)[C@H](Cc1c[nH]c2ccccc12)NC(=O)[C@@H](N)Cc1c[nH]c2ccccc12)C(=O)N[C@@H](CC(=O)O)C(=O)N[C@@H](Cc1c[nH]c2ccccc12)C(=O)N[C@@H](Cc1c[nH]c2ccccc12)C(=O)N[C@@H](CC(N)=O)C(=O)N[C@@H](CCC(=O)O)C(=O)N[C@@H](Cc1c[nH]c2ccccc12)C(N)=O` [WWQDWWNEW], the MIC was at least 348 µM against Enterococcus faecalis; at least 348 µM in the test on Escherichia coli W3110; at least 348 µM in test [1]; over 348 µM against Staphylococcus aureus; at least 348 µM in [15]; at least 348 µM in [16]. Also, the MIC in [2], in test [3] and in test [4] was at least 348 µM in each case.

One may read the MIC as the smallest concentration in the dilution series that meets the test's criterion for growth inhibition. A low value points to inhibition by little substance.
